Experimental findings from patent US4241065A, “Fluoro analogs of hydrocodone and oxycodone useful as analgesics, narcotic antagonists or both” (priority 1979, dated 1980) are described below.

One data set is described as follows: in vivo. Set-up: species or system mice (CF1 S female). To be noted: sc, mouse.
Data set [1] concerns pain induced by phenylquinone (writhing syndrome). The experiment in a line: Phenylquinone writhing test (PQW), analgesic activity in mice. The format is in vivo, mice (fasted female white mice). From the text:
Exp. Biol. Med. 95, 729 (1957). […] Rev. 11 115-145 (1947).
In general terms: An intraperitoneal irritant provokes the stretching counted in writhing tests.

The test system of data set [2] is morphine-induced Straub tail in mice. The experiment in a line: Narcotic antagonist (anti-Straub tail) test in mice. The format is in vivo. To be noted: ip, 10 min; mouse, compound intraperitoneal, 10 min later 53 mg/kg morphine sulfate s.c.; compounds of the invention as hydrochloride salt; 135 mg/kg or higher = inactive; read-out: Antistraub Tail ED50 (Mouse ED50 Values).

Data set [3] concerns Straub tail induced by morphine sulfate. The experiment in a line: Modified Straub Tail Antagonism test. As to conditions: Mus musculus, sc; test drug subcutaneous in 1% methyl cellulose with 1.25% Tween 80; morphine sulfate 35 mg/kg i.p. 5 min later; observed after 15 min for 5 min; read-out: ED 50 (modified Straub Tail Antagonism). The format is in vivo, mice. Here is the method:
The Straub Tail Antagonism test was modified by giving test drugs (in 1% methyl cellulose with 1.25% "Tween 80") subcutaneously, followed by intraperitoneal injection of morphine sulfate (at 35 mg/kg) 5 minutes after the test drug. […] ED 50's were calculated as above with a 95% confidence limit as described by Litchfield, J. Pharmacol. Exp. Ther. 96, 99 (1949).

Where [4] appears, read: subcutaneous, within 25 minutes after dosing, compounds of the invention as hydrochloride salt, 135 mg/kg or higher = inactive, read-out: Straub Tail ED50 (Mouse ED50 Values).
Where [5] appears, read: 0.5 h, mouse, oral, observed for 10 min commencing 30 min after administration, compounds of the invention as hydrochloride salt, 135 mg/kg or higher = inactive, read-out: PQW ED50 (Mouse ED50 Values, POW).

Structures are written as SMILES. Read-outs that look alike come from different tables or passages of the source. A value given as a limit tells only on which side of the number the result lay.

For `COc1ccc2c3c1OC1C(F)C=CC4C(C2)N(C)CCC341` (stereo not drawn) [Ayer 3,137,701, reference compound], the ED50 at 25 min in “in vivo” (setting [4]) came out at 63 mg/kg.

Regarding `COc1ccc2c3c1O[C@H]1[C@@H](O)C=C[C@H]4[C@@H](C2)N(C)CC[C@@]341` [Codeine PO4, reference compound], the ED50 at 25 min in “in vivo” (setting [4]) came out at 202 mg/kg. Consider `COc1ccc2c3c1O[C@H]1C(F)=CC[C@H]4[C@@H](C2)N(C)CC[C@]314.Cl` [Compound 2, 17-Methyl-6,7-didehydro-4,5-epoxy-6-fluoro-3-methoxymorphinan Hydrochloride], for which the ED50 in data set [1] (setting [5]) turned out to be 8.5 mg/kg. `COc1ccc2c3c1O[C@H]1C(F)(F)CC[C@H]4[C@@H](C2)N(C)CC[C@@]341.Cl` [Compound 4, 17-Methyl-4,5-epoxy-6,6-difluoro-3-methoxymorphinan Hydrochloride]: the ED50 in data set [2] is over 81 mg/kg. For the same compound, in “in vivo” (setting [4]), the ED50 at 25 min is 10 mg/kg. On to `CN1CC[C@]23c4c5ccc(O)c4OC2C(F)=CC[C@H]3[C@H]1C5.Cl` (stereo partly drawn) [Compound 6, 17-Methyl-6,7-didehydro-4,5-epoxy-6-fluoro-3-hydroxymorphinan Hydrochloride], for which the ED50 at 25 min in the data set “in vivo” (setting [4]) came out at 17 mg/kg. Besides, in data set [1] (setting [5]), the ED50 is 8 mg/kg. In the case of `COc1ccc2c3c1OC1C(F)(F)CC[C@H]4[C@@H](C2)N(CC2CCC2)CC[C@]314.Cl` (stereo partly drawn) [Compound 10, 17-Cyclobutylmethyl-4,5-epoxy-6,6-difluoro-3-methoxymorphinan Hydrochloride], the ED50 at 25 min in the data set “in vivo” (setting [4]) is over 81 mg/kg.

Turning to `COc1ccc2c3c1OC1C(F)(F)CC[C@H]4[C@@H](C2)N(CC2CC2)CC[C@]314` (stereo partly drawn) [Compound 15, 17-Cyclopropylmethyl-4,5-epoxy-6,6-difluoro-3-methoxymorphinan], the ED50 at 25 min in the data set “in vivo” (setting [4]) was over 54 mg/kg.

As to `COc1ccc2c3c1OC1C(F)=CC[C@H]4[C@@H](C2)N(CC2CC2)CC[C@]314` (stereo partly drawn) [Compound 16, 17-Cyclopropylmethyl-6,7-didehydro-4,5-epoxy-6-fluoro-3-methoxymorphinan], in “in vivo” (setting [4]), the ED50 at 25 min is over 135 mg/kg. Consider `Oc1ccc2c3c1OC1C(F)(F)CC[C@H]4[C@@H](C2)N(CC2CC2)CC[C@]314` (stereo partly drawn) [Compound 17, 17-Cyclopropylmethyl-4,5-epoxy-6,6-difluoro-3-hydroxymorphinan], for which the ED50 in data set [2] was determined as 0.003 mg/kg; in data set [3] it was 0.0033 mg/kg; in data set [1] (0.5 h, mouse, oral, * peak time value (maximum activity within 30 min of administration), compounds of the invention as hydrochloride salt, read-out: PQW ED50 (Mouse ED50 Values, POW), peak time value) it was 2.6 mg/kg. In “in vivo” (setting [4]), the ED50 at 25 min is over 54 mg/kg. As for `Cl.Oc1ccc2c3c1OC1C(F)=CC[C@H]4[C@@H](C2)N(CC2CC2)CC[C@]314` (stereo partly drawn) [Compound 18, 17-Cyclopropylmethyl-6,7-didehydro-4,5-epoxy-6-fluoro-3-hydroxymorphinan Hydrochloride], the ED50 in data set [2] came to 0.18 mg/kg; in data set [1] (setting [5]), 7.2 mg/kg. Further, in “in vivo” (setting [4]), the ED50 at 25 min was over 135 mg/kg. For `COc1ccc2c3c1O[C@H]1C(F)(F)CC[C@@]4(O)[C@@H](C2)N(CC2CCC2)CC[C@]314.Cl` [Compound 26, 17-Cyclobutylmethyl-4,5α-epoxy-6,6-difluoro-14β-hydroxy-3-methoxymorphinan Hydrochloride], the ED50 at 25 min in “in vivo” (setting [4]) was over 135 mg/kg.

For `CC(=O)Oc1ccc2c3c1O[C@H]1C(F)=CC[C@H]4[C@@H](C2)N(CC2CC2)CC[C@]314` [Compound 29, 17-Cyclopropylmethyl-6,7-didehydro-4,5α-epoxy-6-fluoro-3-acetoxymorphinan], the ED50 is 0.0022 mg/kg in data set [2]; 1.3 mg/kg in data set [1] (setting [5]); 0.0016 mg/kg in data set [1] (Mus musculus, sc, 0.25 h, subcutaneous, fifteen minutes after injection, read-out: ED50 (analgesic, subcutaneous injection)). In addition, the ED50 at 25 min in the data set “in vivo” (setting [4]) was over 18 mg/kg. In the case of `CC(=O)Oc1ccc2c3c1O[C@H]1C(F)(F)CC[C@H]4[C@@H](C2)N(CC2CC2)CC[C@@]341` [Compound 30, 17-Cyclopropylmethyl-4,5α-epoxy-6,6-difluoro-3-acetoxymorphinan], the ED50 came out at 0.0031 mg/kg in data set [2] and 2.2 mg/kg in data set [1] (setting [5]). Moreover, the ED50 at 25 min in “in vivo” (setting [4]) is over 18 mg/kg. In the data set “in vivo” (135 mg/kg), `CN1CC[C@]23c4c5ccc(O)c4O[C@H]2[C@@H](O)C=C[C@H]3[C@H]1C5` [Morphine SO4, reference compound] registered an ED50 at 25 min of 48 mg/kg. Take `CC(C)=CCN1CCC2(C)c3cc(O)ccc3CC1C2C` (stereo not drawn) [Pentazocine, reference compound]: in data set [3], the ED50 came to 1.9 mg/kg.
